Patent US20210353593A1 (Chinook Therapeutics, Inc., priority 2019, published 2021)
Entries after “also recorded” stand apart in the source; their conditions may differ.

Tests used:
[1] = test system: primary human renal mesangial cells (HRMCs); assay: Proliferation (BrdU) of primary human renal mesangial cells stimulated with IgA-containing immune complexes; format: cell-based
Excerpt: Primary human mesangial cells in a culture were stimulated with pathogenic galactose deficient (Gd)-IgA containing immune complexes isolated from human IgA nephropathy patients.
Specifically, pathogenic IgA-containing immune complexes were isolated from serum from either IgA nephropathy patients or age, gender and ethnicity-matched healthy individuals. Frozen serum was purchased from BioIVT and IgA-containing immune complexes were purified using jacalin affinity chromatography. […] Purified IgA-containing immune complexes were concentrated using a 100K Amicon filtration unit and the amount of total IgA and galactose-deficient IgA (Gd-IgA) in the immune complexes was measured by ELISA (ThermoFisher and IBL America, respectively). […] See, e.g., Novak et. al., Kidney International, 67, pp. 504-516; 2005; Novak et. al., Nephrol. Dial. Transplant, 26, pp. 3451-3457; 2011; Liang et. al., Cell Physiol. Biochem., 36, pp. 1793-1808; 2015; Nguyen et. al., Clin. Kidney 1, 12 (2), pp, 232-238; 2019.

[2] = patients with diabetic kidney disease; cited from earlier work

CCCCN(CCCC)C(=O)CN1C[C@H](c2ccc3c(c2)OCO3)[C@@H](C(=O)O)[C@@H]1c1ccc(OC)cc1 [Atrasentan, (2R,3R,4S)-4-(1,3-benzodioxol-5-yl)-1-[2-(dibutylamino)-2-oxoethyl]-2-(4-methoxyphenyl)pyrrolidine-3-carboxylic acid]
basal cell proliferation in HRMCs ([1]; IgA containing serum fractions from healthy controls): no effect | proliferation of HRMCs induced by IgA containing immune complexes from patients with IgA nephropathy ([1]; immune complexes from three separate IgAN patients, BrdU): reduces the proliferation; also recorded: significantly attenuated the hyperproliferation | risk of renal events (doubling of serum creatinine or end-stage kidney disease) [2]: significantly reducing the risk of renal events
